Earlier results on one molecule are cited in patent US20160324770A1, “INTRATHECAL ADMINISTRATION, PREFERABLY INTRAVENTRICULAR, OF MTOR INHIBITORS FOR THE THERAPY OF SOME NEURODEGENERATIVE, NEUROINFLAMMATORY AND NEURO-ONCOLOGIC DISEASES” (priority 2012, published 2016).

In general, half-life refers to the time in which the quantity being followed falls by half.

The conditions of this data set: cited from earlier work.

As for `CO[C@H]1C[C@@H]2CC[C@@H](C)[C@@](O)(O2)C(=O)C(=O)N2CCCC[C@H]2C(=O)O[C@H]([C@H](C)C[C@@H]2CC[C@@H](O)[C@H](OC)C2)CC(=O)[C@H](C)/C=C(\C)[C@@H](O)[C@@H](OC)C(=O)[C@H](C)C[C@H](C)/C=C/C=C/C=C/1C` [rapamycin], the “half-life compared to everolimus” value is listed as “more than double that time”. The half-life (according to the FDA) is 62 h.
